Test results from PubChem BioAssay AID2060350 (Molecular Pharmacology Branch, DTP, NCI, 2025).

System: PDC 521955-158-R6-J3 spheroids, viability
Assay: Anticancer human tumor 521955-158-R6-J3-PDC patient-derived pancreatic carcinoma cell line growth inhibition [TAK]
Details: spheroids with HUVEC and MSC; for IC50: curve of first compound; for viability, T/C: stronger effect = lower value
Source text: Combinatorial screen of targeted agents with TAK-243 and ipatasertib in multi-cell type tumor spheroids
A high-throughput screen of multi-cell type tumor spheroids was designed to identify active combinations of targeted small molecules and TAK-243 or ipatasertib. Complex spheroids include a stromal component modeled by human endothelial cells (HUVEC) and fibroblasts modeled by human mesenchymal stem cells (MSCs). The concentration ranges selected for each drug and investigational agent were based upon clinically achievable concentrations if the clinical Cmax of the agent was known.
Compounds. The drugs and investigational agents: TAK-243 (785004), ipatasertib (767898), everolimus (733504), selumetinib (741078), bortezomib (756655), trametinib (758246), ixazomib (758254), vemurafenib (761431), dabrafenib (764134), sapanisertib (764658), alpelisib (765974), and copanlisib (816437), were obtained from the National Cancer Institute (NCI) Developmental Therapeutics Program Chemical Repository. The FDA-approved anticancer drug set is available from the NCI Developmental Therapeutics Program. […] The stock solutions were prepared in dimethyl sulfoxide (DMSO, Sigma-Aldrich, St. Louis, MO, cat. D2650) at 800-fold the tested concentration and stored at -70 degrees C prior to their use. All drugs and investigational agents were tested over a range starting from a high concentration at or near the clinical Cmax and decreasing in half-log increments. If the clinical Cmax for an agent had not been determined, the highest concentration tested was 10 microM.
NCI60 Cell Culture. NCI60 cell lines were obtained from the NCI Developmental Therapeutics Program Tumor Repository. For each lot of cells, the Repository performed Applied Biosystems AmpFLSTR Identifiler testing with PCR amplification to confirm consistency with the published Identifier STR profile for each cell line. Cells were kept in continuous culture for no more than 20 passages. The optimal seeding densities for each of the cell lines at each time point assessed were determined prior to performing the concentration response studies. Briefly, the NCI60 human tumor lines were grown as monolayers in RPMI 1640 medium supplemented with 10% FBS and 2 mmol/L L-glutamine.
An additional 2 lines were from the NCI60 cell line panel including melanomas, MALME-3M and SK-MEL-2. Pooled donor human umbilical vein endothelial cells (HUVEC, Lonza, cat. CC-2519) and human mesenchymal stem cells (hMSC, Lonza, cat. PT-2501) were purchased from Lonza (Walkersville, MD).
PDMR cell lines were grown in complete medium (DC medium): Dulbecco's modified Eagle's medium (DMEM)/F12 supplemented with 5% fetal bovine serum (FBS), 2 mM L-glutamine, 100 U/mL penicillin and 100 µg/ml streptomycin, 0.4 µg/ml hydrocortisone, 10 ng/ml epidermal growth factor (EGF) recombinant human protein, 24 µg/mL adenine, and 0.1 mg/mL primocin. During culture from frozen stock vials, PDMR cells were cultured in the same medium containing 10 µM Y-27632 (see Table 3). The PDCs were cultured in complete DMEM/F12 media without 10 microM Y-27632 dihydrochloride for at least two passages prior to the screen. The pooled donor HUVEC and hMSC were cultured in endothelial cell growth medium 2 (PromoCell, Heidelberg, Germany, cat. C-22011) and mesenchymal stem cell growth medium 2 (PromoCell, cat. C-28009), respectively. For all experiments, HUVEC and hMSC were used at passages </=5.
For the pre-screen, cell seeding densities were determined from a titration spanning the range from 5,000 to 313 cells per well. The mct-spheroids including 60% malignant cells, 25% HUVEC and 15% MSC dispensed as a mixture into U-bottom Ultra-Low Attachment 384-well plates (Corning, NY)
High-throughput Drug Combination Screening.
Prior to their inoculation into 384-well plates, malignant cells, HUVEC, and hMSC were removed from T flasks using TrypLE express (Thermo Fisher Scientific, cat. 12605036) and harvested by centrifugation for 5 min at 233 x g. […]
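Further: spheroids exposed to drugs for 7 days before readout.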
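Wherever viability, T/C is given: 100% = DMSO vehicle control viability.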

SMILES: CC(C)CC(NC(=O)C(Cc1ccccc1)NC(=O)c1cnccn1)B(O)O (stereo not given) + CC(C)NCC(C(=O)N1CCN(c2ncnc3c2C(C)CC3O)CC1)c1ccc(Cl)cc1
- IC50 (second compound 0.3 µM): 5.96 nM
- IC50 (second compound 0.949 µM): 5.82 nM
- IC50 (second compound 3 µM): 5.71 nM
- IC50 (second compound 9.49 µM): 6.02 nM
- IC50 (second compound 30 µM): 5.65 nM
- viability, T/C (second compound 0.3 µM, first compound 31.6 pM): 94.4%
- viability, T/C (second compound 0.3 µM, first compound 0.0001 µM): 95.4%
- viability, T/C (second compound 0.3 µM, first compound 0.000316 µM): 94.5%
- viability, T/C (second compound 0.3 µM, first compound 0.001 µM): 96.1%
- viability, T/C (second compound 0.3 µM, first compound 0.00316 µM): 111%
- viability, T/C (second compound 0.3 µM, first compound 0.01 µM): 10.6%
- viability, T/C (second compound 0.949 µM, first compound 31.6 pM): 94.3%
- viability, T/C (second compound 0.949 µM, first compound 0.0001 µM): 84.2%
- viability, T/C (second compound 0.949 µM, first compound 0.000316 µM): 93.5%
- viability, T/C (second compound 0.949 µM, first compound 0.001 µM): 103%
- viability, T/C (second compound 0.949 µM, first compound 0.00316 µM): 109%
- viability, T/C (second compound 0.949 µM, first compound 0.01 µM): 8.36%
- viability, T/C (second compound 3 µM, first compound 31.6 pM): 90.6%
- viability, T/C (second compound 3 µM, first compound 0.0001 µM): 90.5%
- viability, T/C (second compound 3 µM, first compound 0.000316 µM): 93%
- viability, T/C (second compound 3 µM, first compound 0.001 µM): 93.7%
- viability, T/C (second compound 3 µM, first compound 0.00316 µM): 113%
- viability, T/C (second compound 3 µM, first compound 0.01 µM): 6.03%
- viability, T/C (second compound 9.49 µM, first compound 31.6 pM): 94.3%
- viability, T/C (second compound 9.49 µM, first compound 0.0001 µM): 89%
- viability, T/C (second compound 9.49 µM, first compound 0.000316 µM): 97.6%
- viability, T/C (second compound 9.49 µM, first compound 0.001 µM): 96.1%
- viability, T/C (second compound 9.49 µM, first compound 0.00316 µM): 104%
- viability, T/C (second compound 9.49 µM, first compound 0.01 µM): 13.5%
- viability, T/C (second compound 30 µM, first compound 31.6 pM): 93.8%
- viability, T/C (second compound 30 µM, first compound 0.0001 µM): 92.1%
- viability, T/C (second compound 30 µM, first compound 0.000316 µM): 89.9%
- viability, T/C (second compound 30 µM, first compound 0.001 µM): 98.5%
- viability, T/C (second compound 30 µM, first compound 0.00316 µM): 98.4%
- viability, T/C (second compound 30 µM, first compound 0.01 µM): 6.17%

SMILES: Cn1cnc2c(F)c(Nc3ccc(Br)cc3Cl)c(C(=O)NOCCO)cc21 + CC(C)NCC(C(=O)N1CCN(c2ncnc3c2C(C)CC3O)CC1)c1ccc(Cl)cc1
- IC50 (second compound 0.3 µM): 326 nM
- IC50 (second compound 0.949 µM): 176 nM
- IC50 (second compound 3 µM): 324 nM
- IC50 (second compound 9.49 µM): 141 nM
- IC50 (second compound 30 µM): 186 nM
- viability, T/C (second compound 0.3 µM, first compound 0.00949 µM): 66.8%
- viability, T/C (second compound 0.3 µM, first compound 0.03 µM): 60.1%
- viability, T/C (second compound 0.3 µM, first compound 0.0949 µM): 54.6%
- viability, T/C (second compound 0.3 µM, first compound 0.3 µM): 47.5%
- viability, T/C (second compound 0.3 µM, first compound 0.949 µM): 51.8%
- viability, T/C (second compound 0.3 µM, first compound 3 µM): 38.9%
- viability, T/C (second compound 0.949 µM, first compound 0.00949 µM): 69.6%
- viability, T/C (second compound 0.949 µM, first compound 0.03 µM): 58.4%
- viability, T/C (second compound 0.949 µM, first compound 0.0949 µM): 48.3%
- viability, T/C (second compound 0.949 µM, first compound 0.3 µM): 49.7%
- viability, T/C (second compound 0.949 µM, first compound 0.949 µM): 43.8%
- viability, T/C (second compound 0.949 µM, first compound 3 µM): 25.7%
- viability, T/C (second compound 3 µM, first compound 0.00949 µM): 68.2%
- viability, T/C (second compound 3 µM, first compound 0.03 µM): 60.9%
- viability, T/C (second compound 3 µM, first compound 0.0949 µM): 52.4%
- viability, T/C (second compound 3 µM, first compound 0.3 µM): 51.8%
- viability, T/C (second compound 3 µM, first compound 0.949 µM): 43%
- viability, T/C (second compound 3 µM, first compound 3 µM): 21.6%
- viability, T/C (second compound 9.49 µM, first compound 0.00949 µM): 66.8%
- viability, T/C (second compound 9.49 µM, first compound 0.03 µM): 55.7%
- viability, T/C (second compound 9.49 µM, first compound 0.0949 µM): 47.8%
- viability, T/C (second compound 9.49 µM, first compound 0.3 µM): 49.5%
- viability, T/C (second compound 9.49 µM, first compound 0.949 µM): 33.9%
- viability, T/C (second compound 9.49 µM, first compound 3 µM): 15.8%
- viability, T/C (second compound 30 µM, first compound 0.00949 µM): 64.3%
- viability, T/C (second compound 30 µM, first compound 0.03 µM): 56.7%
- viability, T/C (second compound 30 µM, first compound 0.0949 µM): 49.6%
- viability, T/C (second compound 30 µM, first compound 0.3 µM): 50.1%
- viability, T/C (second compound 30 µM, first compound 0.949 µM): 35.8%
- viability, T/C (second compound 30 µM, first compound 3 µM): 15.1%
